The values below come from patent US20110070293A1, “Methods for the Preparation of Liposomes Comprising Docetaxel” (priority 2009, published 2011).

Where two headings read alike, the source gives them in different places.

A short description of data set [1]: Incorporation of docetaxel into liposome. The class given is physicochemical. As for the experimental part: As provided herein, the sequence of the addition of docetaxel results in enhanced solubility of the docetaxel. The conventional method of incorporating a hydrophobic drug into liposome is by adding the drug to lipid before liposome preparation. See, e.g., Immordino, M. L. et al., Journal of Controlled Release, 2003, 91: 417-429. By the conventional process, the incorporation of the drug is only 0.3 to 0.7 mg/mL. When docetaxel is added after liposome preparation, the incorporation of docetaxel is increased from 0.3 mg/mL to 5 mg/mL, which is more than 10 fold increase in solubility of the drug in lipid alone.
In the conventional liposome preparation, the drug to lipid molar percent ratio is 4-6% with the incorporation of drug into liposome efficiency is only 56%. See Immordino, M. L. et al., Journal of Controlled Release, 2003, 91: 417-429.

Data set [2] can be described thus: Solubilization of docetaxel in fatty acid, fatty acid salt or oleate liposome media. The class given is physicochemical. The following applies: for solubility: aqueous with cosolvent or surfactant or cyclodextrin. As to the method: (§1) Docetaxel (5 mg) was added to 31 μL of oleic acid and mixed using a VORTEX®. Ethanolamine (6 μL) was subsequently added and mixed using a VORTEX®. After mixing, the sample was dispersed in 963 μL of water for injection. Docetaxel was soluble and the formulation clear at 5 mg/mL. Docetaxel remained soluble, and the formulation was stable, upon dilution (1:10 in 2.5% glycerol) up to 24 hours as analyzed by a reverse phase high performance liquid chromatography method.
(§2) Docetaxel (5.0 mg) was added to 1 mL of 0.05 M sodium oleate and mixed using a VORTEX®. Docetaxel was soluble and the formulation clear at 5.0 mg/mL. Docetaxel remained soluble, and the formulation was stable, upon dilution (1:10 in 2.5% glycerol) up to 24 hours as analyzed by a reverse phase high performance liquid chromatography method.
(§3) Docetaxel (2 mg) was added to 1 mL of 1 M sodium caprylate and mixed by a VORTEX®. Docetaxel was soluble and the formulation clear at 2 mg/mL. Docetaxel remained soluble, and the formulation was stable, upon dilution (1:2 2.5% glycerol) up to 24 hours as analyzed by a reverse phase high performance liquid chromatography method.
(§4) Docetaxel (7.0 mg) was added to 1 mL of 1 M sodium linoleate and mixed using a VORTEX®. Docetaxel was soluble and the formulation clear at 7.0 mg/mL. Docetaxel remained soluble, and the formulation was stable, upon dilution (1:10 2.5% glycerol) up to 24 hours as analyzed by a reverse phase high performance liquid chromatography method.
(§5) Docetaxel (5 mg) was added to 1 mL of pre-made liposome containing 2 mM sodium oleate and 6% soy phosphatidyl choline, 10% trehalose, pH adjusted to 5-7 using Acetic acid, mixed using a VORTEX®, and microfluidized using a Microfluidizer with 10 passes at 15,000 psi. Five additional passes with the Microfluidizer at 15,000 psi were made to incorporate all 5 mg of the drug into 1 mL of pre-made liposome. Docetaxel was soluble and the formulation was transparent at 5 mg/mL. Docetaxel remained soluble, and the formulation was stable, upon dilution (1:10 in D5W) up to 48 hours as analyzed by a reverse phase high performance liquid chromatography method.
(§6) Hydrophobic or lipophilic compounds can be solubilized directly in sodium (or any ion) salt of fatty acid dissolved in an organic solvent. The organic solvent is subsequently removed using rotary evaporation, spray drying, or any other pharmaceutically acceptable processes. The drug-sodium salt of fatty acid mixture is subsequently dispersed in water, isotonic glycerol, or any pharmaceutically acceptable isotonic solution to achieve a desired concentration of the solubilized compound. For example, docetaxel (5 mg/mL) was dissolved in 100 mM sodium oleate in 100% ethanol. Ethanol was completely evaporated using rotary evaporation at 20° C. The docetaxel-sodium oleate was reconstituted with Water For Injection (“WFI”) or 2.5% glycerol to provide 5 mg/mL, 10 mg/mL, or 20 mg/mL concentration of docetaxel.
(§7) 50 μl of Docetaxel in ethanol (100 mg/mL) was added to 1 mL of pre-made liposome containing 2 mM sodium oleate and 6% soy phosphatidyl choline, 10% trehalose and pH adjusted to 5-7 using Acetic acid, mixed using a VORTEX® and microfluidized using a Microfluidizer with 10 passes at 15,000 psi. Docetaxel was soluble and the formulation is transparent at 5 mg/mL. Docetaxel remained soluble, and the formulation was stable, upon dilution (1:10 in D5W) up to 48 hours as analyzed by a reverse phase high performance liquid chromatography method. […] The lyophilized product is reconstituted with water for injection at 5 mg, 10, or 20 mg/mL concentration, essentially free of organic solvent.

Data set [3] in a line: Stability of docetaxel formulations upon dilution (reverse phase HPLC) and after lyophilization. The class given is physicochemical. The following applies: for time docetaxel remained soluble and formulation stable upon dilution: RP-HPLC. As to the method:
as §1, §2, §3, §4, §5, §6, §7

The conditions of data set [4]: cited from earlier work.
Where [5] appears, read: docetaxel added to pre-made liposome.
Setting [6] is: conventional liposome preparation (Immordino et al.).

With `CC(=O)O[C@@]12CO[C@@H]1C[C@H](O)[C@@]1(C)C(=O)[C@H](O)C3=C(C)[C@@H](OC(=O)[C@H](O)[C@@H](NC(=O)OC(C)(C)C)c4ccccc4)C[C@@](O)([C@@H](OC(=O)c4ccccc4)[C@H]21)C3(C)C` [Docetaxel], in data set [1] (docetaxel added after liposome preparation), the “incorporation of docetaxel into liposome” value was 5 mg/mL. In data set [1] (docetaxel added after liposome preparation vs 0.3 mg/mL), the “increase in solubility of the drug versus lipid alone” value was “more than 10 fold”. The “drug to lipid molar ratio” value in data set [1] (setting [5]) turned out to be 8%. Moreover, in data set [1] (setting [5]), the “efficiency of incorporation of docetaxel into liposome” value is “about 100%”. Further, the solubility in data set [2] (0.05 M sodium oleate solution, Example 7: 0.05 M sodium oleate, read-out: concentration at which docetaxel was soluble and formulation clear) came out at 5000 µg/mL; in data set [2] (1 M sodium caprylate solution, Example 8: 1 M sodium caprylate, read-out: concentration at which docetaxel was soluble and formulation clear) it was 2000 µg/mL; in data set [2] (1 M sodium linoleate solution, Example 9: 1 M sodium linoleate, read-out: concentration at which docetaxel was soluble and formulation clear) it was 7000 µg/mL; in data set [2] (Example 10: solid docetaxel in pre-made liposome, 2 mM sodium oleate, 6% soy phosphatidyl choline, 10% trehalose, pH 5-7, read-out: concentration at which docetaxel was soluble and formulation transparent), 5000 µg/mL; in data set [2] (oleic acid / ethanolamine dispersion in water for injection, Example 6: oleic acid, ethanolamine, water for injection, read-out: concentration at which docetaxel was soluble and formulation clear), 5000 µg/mL. In addition, in data set [2] (Example 12: docetaxel in ethanol added to pre-made liposome, 2 mM sodium oleate, 6% soy phosphatidyl choline, 10% trehalose, pH 5-7), the “concentration at which docetaxel was soluble and formulation transparent” value was determined as 5000 µg/mL. Also, the “time docetaxel remained soluble and formulation stable upon dilution” value in data set [3] (Example 6: oleic acid/ethanolamine, dilution 1:10 in 2.5% glycerol) is on record as “up to 24 hours”; in data set [3] (Example 7: 0.05 M sodium oleate, dilution 1:10 in 2.5% glycerol), “up to 24 hours”; in data set [3] (Example 8: 1 M sodium caprylate, dilution 1:2 2.5% glycerol) it was “up to 24 hours”; in data set [3] (Example 9: 1 M sodium linoleate, dilution 1:10 2.5% glycerol) it was “up to 24 hours”; in data set [3] (Example 10: oleate liposome, dilution 1:10 in D5W) it was “up to 48 hours”; in data set [3] (Example 12: oleate liposome, dilution 1:10 in D5W) it was “up to 48 hours”. Also, in data set [3] (Example 11: docetaxel-sodium oleate reconstituted with WFI or 2.5% glycerol), the “time reconstituted docetaxel remained in solution” value is given as 2 hours, 4 hours, 6 hours, 8 hours or 24 hours. In addition, the “drug to lipid molar percent ratio” value in data set [4] (setting [6]) was 4-6%. Also, the “efficiency of incorporation of drug into liposome” value in data set [4] (setting [6]) is recorded as 56%. In data set [4] (conventional process: drug added to lipid before liposome preparation (Immordino et al.)), the “incorporation of the drug into liposome” value is on record as 0.3 to 0.7 mg/mL.
